Assay results published in ChEMBL document CHEMBL1201862, “PubChem BioAssay data set” (2004).
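Five compound concentrations were applied to cells in 96-well plates for 48 hours; endpoints were derived by simple linear interpolation of the resulting dose-response curve. GI50 marks 50% less growth.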 Activity calls are given as the source filed them. No stated cut-off is given here; in the data, active = GI50 up to about 1.1 µM and inactive = higher. Non-standard residues stand in square brackets, D forms with d. Residues, ends and D or L forms follow the SMILES beside them. ΔPro = O=C(O)[CH]1C=CCN1

Legend:
Assay in all cases: NCI anticancer screen, dose series, 48 h
A498 = test system: A498
ACHN = test system: ACHN
CAKI-1 = test system: CAKI-1
CCRF-CEM = test system: CCRF-CEM
COLO 205 = test system: COLO 205
DLD-1 = test system: DLD-1
EKVX = test system: EKVX
HL-60 = test system: HL-60
HOP-62 = test system: HOP-62
HOP-92 = test system: HOP-92
HT-29 = test system: HT-29
IGROV-1 = test system: IGROV-1
K562 = test system: K562
KM-20L2 = test system: KM-20L2
KM12 = test system: KM12
LOX IMVI = test system: LOX IMVI
MOLT-4 = test system: MOLT-4
NCI-H226 = test system: NCI-H226
NCI-H23 = test system: NCI-H23
OVCAR-4 = test system: OVCAR-4
OVCAR-5 = test system: OVCAR-5
OVCAR-8 = test system: OVCAR-8
RPMI-8226 = test system: RPMI-8226
SF-295 = test system: SF-295
SF-539 = test system: SF-539
SK-MEL-5 = test system: SK-MEL-5
SN12C = test system: SN12C
SNB-19 = test system: SNB-19
SNB-75 = test system: SNB-75
SR = test system: SR
SW-620 = test system: SW-620
TK-10 = test system: TK-10
UACC-257 = test system: UACC-257
UACC-62 = test system: UACC-62
DMS-114 = test system: DMS-114
OVCAR-3 = test system: OVCAR-3
SNB-78 = test system: SNB-78
786-0 = test system: 786-0
A549 = test system: A549
BT-549 = test system: BT-549
DU-145 = test system: DU-145
HCC 2998 = test system: HCC 2998
HCT-116 = test system: HCT-116
HCT-15 = test system: HCT-15
Hs-578T = test system: Hs-578T
M14 = test system: M14
MCF7 = test system: MCF7
MDA-MB-231 = test system: MDA-MB-231
MDA-MB-435 = test system: MDA-MB-435
MDA-N = test system: MDA-N
Malme-3M = test system: Malme-3M
NCI-H460 = test system: NCI-H460
NCI-H522 = test system: NCI-H522
NCI/ADR-RES = test system: NCI/ADR-RES
PC-3 = test system: PC-3
RXF 393 = test system: RXF 393
SF-268 = test system: SF-268
SK-MEL-28 = test system: SK-MEL-28
SK-MEL-2 = test system: SK-MEL-2
SK-OV-3 = test system: SK-OV-3
T47D = test system: T47D
U-251 = test system: U-251
UO-31 = test system: UO-31

In the case of `COC(=O)/C(=N\NC(C)(C)C)C(C(=O)C(=O)Nc1cc(C)ccc1C)c1nc2ccccc2nc1O` (stereo not drawn), the GI50 (A498) is reported as > 100 µM (inactive), the GI50 (ACHN) is reported as > 100 µM (inactive) and the GI50 (CAKI-1) is reported as > 100 µM (inactive). For the same compound, the GI50 (CCRF-CEM) was > 100 µM (inactive), the GI50 (COLO 205) was > 100 µM (inactive) and the GI50 (DLD-1) was > 100 µM (inactive). The GI50 (EKVX) was > 100 µM (inactive), the GI50 (HL-60) was > 100 µM (inactive) and the GI50 (HOP-62) was > 100 µM (inactive). The GI50 (HOP-92) was > 100 µM (inactive), the GI50 (HT-29) was > 100 µM (inactive) and the GI50 (IGROV-1) was > 100 µM (inactive). The GI50 (K562) was > 100 µM (inactive), the GI50 (KM-20L2) was > 100 µM (inactive) and the GI50 (KM12) was > 100 µM (inactive). For the same compound, the GI50 (LOX IMVI) was > 100 µM (inactive), the GI50 (MOLT-4) was > 100 µM (inactive) and the GI50 (NCI-H226) was > 100 µM (inactive). The GI50 (NCI-H23) was > 100 µM (inactive), the GI50 (OVCAR-4) was > 100 µM (inactive) and the GI50 (OVCAR-5) was > 100 µM (inactive). For the same compound, the GI50 (OVCAR-8) was > 100 µM (inactive), the GI50 (RPMI-8226) was > 100 µM (inactive) and the GI50 (SF-295) was > 100 µM (inactive). The GI50 (SF-539) was > 100 µM (inactive), the GI50 (SK-MEL-5) was > 100 µM (inactive) and the GI50 (SN12C) was > 100 µM (inactive). For the same compound, the GI50 (SNB-19) was > 100 µM (inactive), the GI50 (SNB-75) was > 100 µM (inactive) and the GI50 (SR) was > 100 µM (inactive). For the same compound, the GI50 (SW-620) was > 100 µM (inactive), the GI50 (TK-10) was > 100 µM (inactive) and the GI50 (UACC-257) was > 100 µM (inactive). The GI50 (UACC-62) was > 100 µM (inactive).
For `COc1cc(Cc2c(C)cc(OC)c3[nH]c4ccccc4c23)cc2c1[nH]c1ccccc12`, the GI50 (DMS-114) was 10.5 µM (inactive), the GI50 (OVCAR-3) was 5.42 µM (inactive) and the GI50 (OVCAR-5) was 4.99 µM (inactive). For the same compound, the GI50 (OVCAR-8) was 4.57 µM (inactive), the GI50 (RPMI-8226) was 9.95 µM (inactive) and the GI50 (SNB-19) was 8.85 µM (inactive). The GI50 (SNB-78) was 5.79 µM (inactive).
With `O=C(CCCCCCC(=O)Nc1cccnc1)NO` [PYROXAMIDE] the GI50 (786-0) was 7.21 µM (inactive), the GI50 (A498) was 11 µM (inactive) and the GI50 (A549) was 21.7 µM (inactive). For the same compound, the GI50 (ACHN) was 15.7 µM (inactive), the GI50 (BT-549) was > 100 µM (inactive) and the GI50 (CAKI-1) was 16.6 µM (inactive). For the same compound, the GI50 (CCRF-CEM) was 1.31 µM (inactive), the GI50 (COLO 205) was 2.77 µM (inactive) and the GI50 (DU-145) was 3.71 µM (inactive). For the same compound, the GI50 (EKVX) was 47.5 µM (inactive), the GI50 (HCC 2998) was 4.61 µM (inactive) and the GI50 (HCT-116) was 3.54 µM (inactive). For the same compound, the GI50 (HCT-15) was 34.4 µM, the GI50 (HL-60) was 10.2 µM (inactive) and the GI50 (HOP-62) was 7.16 µM (inactive). For the same compound, the GI50 (HOP-92) was 12.8 µM (inactive), the GI50 (HT-29) was 3.14 µM (inactive) and the GI50 (Hs-578T) was 5.15 µM (inactive). For the same compound, the GI50 (IGROV-1) was 14.7 µM (inactive), the GI50 (K562) was 4.26 µM (inactive) and the GI50 (KM12) was 2.93 µM (inactive). For the same compound, the GI50 (LOX IMVI) was 7.29 µM (inactive), the GI50 (M14) was 4.45 µM (inactive) and the GI50 (MCF7) was 3.8 µM (inactive). The GI50 (MDA-MB-231) was > 100 µM (inactive), the GI50 (MDA-MB-435) was 2.79 µM (inactive) and the GI50 (MDA-N) was 2.62 µM (inactive). For the same compound, the GI50 (MOLT-4) was 2.2 µM (inactive), the GI50 (Malme-3M) was 0.902 µM (active) and the GI50 (NCI-H226) was 36.3 µM (inactive). For the same compound, the GI50 (NCI-H23) was 13 µM (inactive), the GI50 (NCI-H460) was 2.82 µM (inactive) and the GI50 (NCI-H522) was 1.26 µM (inactive). For the same compound, the GI50 (NCI/ADR-RES) was 1.81 µM (inactive), the GI50 (OVCAR-3) was 2.86 µM (inactive) and the GI50 (OVCAR-4) was 10.4 µM (inactive). For the same compound, the GI50 (OVCAR-5) was 4.14 µM (inactive), the GI50 (OVCAR-8) was 1.78 µM (inactive) and the GI50 (PC-3) was 7.26 µM (inactive). For the same compound, the GI50 (RPMI-8226) was 3.14 µM (inactive), the GI50 (RXF 393) was 5.89 µM (inactive) and the GI50 (SF-268) was 4.26 µM (inactive). For the same compound, the GI50 (SF-295) was 21.2 µM (inactive), the GI50 (SF-539) was 3.09 µM (inactive) and the GI50 (SK-MEL-28) was 4.4 µM (inactive). For the same compound, the GI50 (SK-MEL-2) was 2.72 µM (inactive), the GI50 (SK-MEL-5) was 1.21 µM (inactive) and the GI50 (SK-OV-3) was 5.19 µM (inactive). The GI50 (SNB-19) was 16.1 µM (inactive), the GI50 (SNB-75) was 18.1 µM (inactive) and the GI50 (SR) was > 100 µM (inactive). For the same compound, the GI50 (SW-620) was 3.4 µM (inactive), the GI50 (T47D) was 1.47 µM (inactive) and the GI50 (TK-10) was 7.11 µM (inactive). The GI50 (U-251) was 4.76 µM (inactive), the GI50 (UACC-257) was 4.75 µM (inactive) and the GI50 (UACC-62) was 3.34 µM (inactive). For the same compound, the GI50 (UO-31) was 6.5 µM (inactive).
For `O=C(O)C1C=CCN1C(=O)C1C=CCN1C(=O)C1C=CCN1` (stereo not drawn) (H-[ΔPro]-[ΔPro]-[ΔPro]-OH; configuration not given here), the GI50 (786-0) was > 100 µM (inactive), the GI50 (A498) was > 100 µM (inactive) and the GI50 (A549) was > 100 µM (inactive). For the same compound, the GI50 (ACHN) was > 100 µM (inactive), the GI50 (BT-549) was > 100 µM (inactive) and the GI50 (CAKI-1) was > 100 µM (inactive). For the same compound, the GI50 (CCRF-CEM) was > 100 µM (inactive), the GI50 (COLO 205) was > 100 µM (inactive) and the GI50 (DU-145) was > 100 µM (inactive). The GI50 (EKVX) was > 100 µM (inactive), the GI50 (HCC 2998) was > 100 µM (inactive) and the GI50 (HCT-116) was > 100 µM (inactive). The GI50 (HCT-15) was greater than 100 µM, the GI50 (HL-60) was > 100 µM (inactive) and the GI50 (HOP-62) was > 100 µM (inactive). For the same compound, the GI50 (HOP-92) was > 100 µM (inactive), the GI50 (HT-29) was > 100 µM (inactive) and the GI50 (Hs-578T) was > 100 µM (inactive). For the same compound, the GI50 (IGROV-1) was > 100 µM (inactive), the GI50 (K562) was > 100 µM (inactive) and the GI50 (KM12) was > 100 µM (inactive). For the same compound, the GI50 (LOX IMVI) was > 100 µM (inactive), the GI50 (M14) was > 100 µM (inactive) and the GI50 (MCF7) was > 100 µM (inactive). For the same compound, the GI50 (MDA-MB-231) was > 100 µM (inactive), the GI50 (MDA-MB-435) was > 100 µM (inactive) and the GI50 (MDA-N) was > 100 µM (inactive). The GI50 (MOLT-4) was > 100 µM (inactive), the GI50 (Malme-3M) was > 100 µM (inactive) and the GI50 (NCI-H226) was 33.5 µM (inactive). For the same compound, the GI50 (NCI-H23) was > 100 µM (inactive), the GI50 (NCI-H460) was > 100 µM (inactive) and the GI50 (NCI-H522) was > 100 µM (inactive). For the same compound, the GI50 (NCI/ADR-RES) was > 100 µM (inactive), the GI50 (OVCAR-3) was > 100 µM (inactive) and the GI50 (OVCAR-4) was > 100 µM (inactive). For the same compound, the GI50 (OVCAR-5) was > 100 µM (inactive), the GI50 (OVCAR-8) was > 100 µM (inactive) and the GI50 (PC-3) was > 100 µM (inactive). The GI50 (RPMI-8226) was > 100 µM (inactive), the GI50 (RXF 393) was 4.21 µM (inactive) and the GI50 (SF-268) was > 100 µM (inactive). For the same compound, the GI50 (SF-295) was > 100 µM (inactive), the GI50 (SF-539) was > 100 µM (inactive) and the GI50 (SK-MEL-28) was > 100 µM (inactive). The GI50 (SK-MEL-2) was > 100 µM (inactive), the GI50 (SK-MEL-5) was > 100 µM (inactive) and the GI50 (SK-OV-3) was > 100 µM (inactive). For the same compound, the GI50 (SN12C) was > 100 µM (inactive), the GI50 (SNB-19) was > 100 µM (inactive) and the GI50 (SNB-75) was > 100 µM (inactive). For the same compound, the GI50 (SR) was > 100 µM (inactive), the GI50 (SW-620) was > 100 µM (inactive) and the GI50 (T47D) was > 100 µM (inactive). The GI50 (TK-10) was 30.1 µM (inactive), the GI50 (U-251) was > 100 µM (inactive) and the GI50 (UACC-257) was > 100 µM (inactive). For the same compound, the GI50 (UACC-62) was > 100 µM (inactive) and the GI50 (UO-31) was > 100 µM (inactive).
